{"source": "patent US6713098B2", "about": "“Phytochemotherapy for cancer” (priority 2001, dated 2004)", "test_system": "MCF-7 cells", "experiment": "Cell growth inhibition by [3H]thymidine incorporation, PRPC fractions and PRPC/IEC/RPC sub-fractions", "assay_type": "cell-based, human", "procedure": "Sub-confluent cells were serum-starved overnight and then were left untreated, i.e., no serum (−), were treated with serum (+) or with isolated V. amygdalina fractions 8, 9, 10, 14, 15, 16, 17, 18, 19, or 20 for 18 hours. Following incubation, all cells were pulsed with 1 μCi/ml [^3H]thymidine for an additional 4-6 hours as described in Example 2. The results represent the mean ±SD of three independent experiments. *P<0.05; **P<0.01.\nSub-confluent cells were serum-starved overnight and then were left untreated, i.e., no serum (−), were treated with serum (+) or with 100 μg/ml of V. amygdalina fractions 15, 16, 17, 18, 19, or 20 for 18 hours. Following incubation, all cells were pulsed with 1 μCi/ml [^3H]thymidine for an additional 4-6 hours as described in Example 2. The results represent the mean ±SD of three independent experiments. *P<0.05; **P<0.01.\nSub-confluent cells were serum-starved overnight and then were left untreated, i.e., no serum (−), were treated with serum (+) or with 100 ng/ml of V. amygdalina fractions 19-5-16, 19-5-17, or 19-5-13 for 18 hours. […]\nFraction 19 of the PRPC separation described in Example 3 was subjected to IEC fractionation as described in Example 4 to produce 10 IEC sub-fractions designated IEC sub-fractions 19-1 to 19-10. […] Finally, Two RPC sub-fractions, specifically 19-5-16 and 19-5-17, were further analyzed and shown to be pure peptides. […]", "data": [{"substance": "19-5-16 (DTKDVVNVTG)", "values": [{"measurement": "inhibition of cell DNA synthesis", "setting": "100 nanograms/ml, MCF-7, FIG. 5", "result": 4, "unit": "fold"}, {"measurement": "potency in growth inhibition assay (in words)", "setting": "RPC sub-fractions of 19-5, assay as in Example 6", "result": "exceptionally high potency"}]}]}
